# How the values were obtained:
# [1] = tested on: partial thickness skin grafts; experiment: Skin graft adherence after PTB, ex vivo (tensiometer); set-up: species or system mini pigs; settings: RB concentration 0.1% (w/v) among 0, 0.01, 0.1, 1%
# Text: To test the ability of PTB to quickly and effectively bond skin grafts to a wound site, an ex vivo model utilizing mini pigs was developed. The use of porcine models in wound healing is well known by those skilled in the art. The similarities between porcine wound healing and that of humans enable one to extrapolate the therapeutic results obtained in a porcine model system to a therapeutic result in humans.
# Partial thickness skin grafts of approximately 0.020 inch (corresponding to the thick partial-thickness grafts used in clinical situation) were harvested from mini pigs (2 to 7 months old, weight 15 to 43 kgs) after euthanasia. The grafts were temporarily stored by wrapping the graft around gauze, which was soaked in phosphate buffered saline (PBS). […]
# The grafts were irradiated using a continuous-wave (CW) argon-ion laser (Innova 100; Coherent, Palo Alto, Calif.) at 514.5 nm. […] The irradiance of laser applied was 0.56 and 1.68 W/cm^2 while the dose-dependent response of the laser fluence from 126 to 504 J/cm^2 was determined. […]
# Following the irradiation, the adherence of the skin grafts was tested utilizing a tensiometer (Chartillon) coupled to a force transducer (DFA2, Ametek). The applied force versus the displacement of the force plate was acquired through the transducer and recorded by computer software (Labview 4.0, National Instrument). […]
# [2] = tested on: epidermal cells of skin grafts; experiment: Trypan blue exclusion assay of epidermal cells from skin grafts after PTB; assay type: cell-based, mini pigs; settings: 0.1% RB
# Experimental: The cell viability in the skin grafts was further assessed quantitatively by trypan blue exclusion assay. The upper grafts were chosen to be examined because they absorbed more light, and therefore would be damaged to a greater extent, if any, than the lower ones. Following irradiation, the upper skin grafts were incubated with 1 mg/ml dispase (Life Technologies, Rockville, Md.) in PBS overnight at 4° C. The epidermis was gently peeled off from the dermis and washed twice in PBS. Epidermal cells were released by incubating the epidermis with 0.25% trypsin-EDTA (Cellgro) at 37° C. for 15 minutes, accompanied by gentle agitation. Fetal calf serum (FCS) was added to inhibit trypsin activity and the cell suspension was then centrifuged at 2500 rpm for 10 mins. The cell pellet was washed once and re-suspended in PBS. The trypan blue exclusion assay was performed after mixing equal volumes of cell suspension and 0.2% (w/v) trypan blue and loading onto a hemocytometer. The number of viable cells released from each skin graft was calculated. After preparing a single cell suspension from intact epidermis, the cell viability was assessed (FIG. 11).
# [3] = tested on: esophageal keratinocytes; experiment: NADH-diaphorase viability of esophageal keratinocytes after PTB; assay type: cell-based
# Experimental: The viability of the photoactivated cells was also assessed. Nicotinamide adenine dinucleotide (NADH-diaphorase) staining was carried out based on the methods described by Heisterkamp J et al. (1999) Lasers Sug Med 25(3): 257-62 and Neumann R A et al. (1991) J Am Acad Dermatol 25: 991-8. Following irradiation, the keratinocyte layer was gently peeled away from the collagen gel and was exposed overnight to an incubation solution consisting of nicotinamide adenine dinucleotide (NADH) and nitroblue tetrazolium chloride (NBT) (Sigma). The viability of the cells was indicated by the formation of a water-insoluble blue precipitate (diformazan), which corresponded to areas with NADH-diaphorase activity. The insoluble blue precipitate was dissolved in DMSO (an organic solvent) and quantified by measuring the optical density (OD) at 550 nm against a commercially available standard. The negative control, RB control, and the laser control composites were also tested using identical conditions. It was determined for the negative control, RB control, laser control, 50 J/cm^2 composite sample, and the 100 J/cm^2 composite sample that the levels of corresponding blue precipitate were 143, 151, 158, 173 and 158 diformazan/nM after photochemical tissue bonding treatment (FIG. 16).
smiles,measurement,setting,value
O=C([O-])c1c(Cl)c(Cl)c(Cl)c(Cl)c1-c1c2cc(I)c(=O)c(I)c-2oc2c(I)c([O-])c(I)cc12.[Na+].[Na+] [Rose Bengal],skin graft adherence levels,[1],optimal increase
same,number of viable cells per skin graft vs control,"[2]; 0.56 W/cm^2, 126, 252 and 504 J/cm^2",not significantly different
same,number of viable cells relative to control group,[2]; 504 J/cm^2,~80%
same,level of blue precipitate (NADH-diaphorase viability),"[3]; 0.1% RB, 50 J/cm^2",173 diformazan/nM
same,level of blue precipitate (NADH-diaphorase viability),"[3]; 0.1% RB, 100 J/cm^2",158 diformazan/nM
same,level of blue precipitate (NADH-diaphorase viability),"[3]; RB control: RB treated, nonirradiated",151 diformazan/nM

# From patent publication US8215314B2, “Photochemical tissue bonding” (The General Hospital Corporation, priority 2000, dated 2012)
